Reference: patent US4444691A, “11-Cyano-prostaglandins of the F-series” (American Cyanamid Company, priority 1982, dated 1984)
Where two headings read alike, the source gives them in different places.

What was measured:
[1] = tested on: bronchospasms elicited by 5-hydroxytryptamine; experiment: Bronchodilator activity (Konzett assay), 5-hydroxytryptamine bronchospasm; type: in vivo, guinea pigs; conditions: spasmogenic agent 5-hydroxytryptamine, three logarithmic cumulative intravenous doses; for ED50: Cavia porcellus
Experimental: (§1) Bronchodilator activity was determined in guinea pigs against bronchospasms elicited by intravenous injections of 5-hydroxytryptamine, histamine or acetylchlorine by the Konzett procedure. (See J. Lulling, P. Licvens, F. El Sayed and J. Prignot, Arzneinittel-Forschung, 18, 995 (1968).]
(§2) In the Table which follows bronchodilator activity for representative compounds of this invention against one or more of the three spasmogenic agents is expressed as an ED50 determined from the results obtained with three logarithmic cumulative intravenous doses.

gastric acid secretion = experiment: Gastric acid secretion inhibition, modified Shay rat procedure; type: in vivo, rats (male, CFE strain); conditions: intraduodenal
Excerpt: The novel compounds of the present invention are effective inhibitors of gastric acid secretion and of ulcer development in experimental animals, and thus are potentially valuable as agents for the control of gastric secretion and of gastric erosion and as anti-ulcer agents. Gastric acid secretion inhibitory action is usually measured by the "Shay rat" procedure ^(1,2) with some modifications as follows.
(1) Shay et al., Gastroenterology, 5, 43 (1945).
The rats (male, CFE strain) were starved for 48 hours (water was given ad libitum) to permit evacuation of stomach contents. On the morning of the experiment, under ether anesthesia, the abdominal region was shaved and a midline incision (1-11/2" ) was made with a scapel. With the help of a closed curved hemostat the duodenum was picked up. Upon getting the duodenum into view, fingers were used to pull the stomach through the opening, the stomach was then gently manipulated with fingers to rid stomach of air and residual matter which were pushed through the pylorus. Two-5 inch sutures were drawn under the pyloric-duodenal puncture. A ligature at the juncture, was formed with one of the threads. The second ligature was also formed but not tightened.
The test compound or the vehicle, usually 1 ml./100 g. body weight, were injected into the duodenum as close as possible to the first ligature. After injection the second ligature was tightened below the injection site to minimize leakage. The stomach was placed back through the opening into the abdominal cavity, the area of incision was washed with saline and the incision was closed with autoclips. (Occasionally, instead of an intraduodenal injection, animals were dosed by the oral or subcutaneous route. In the latter case, dosing was done thirty to sixty minutes before the operation.)
The abdominal cavity was exposed by cutting with scissors and the esophagus close to the stomach was clamped off with a hemostat, the stomach was removed by cutting above the hemostat (the esophagus was cut) and between the two sutures. Extraneous tissue was removed, the stomach washed with saline and blotted on gauze. A slit was carefully made in the stomach which was held over a funnel and the contents were collected in a centrifuge tube. The stomach was further cut along the outside edge and turned inside out. Two ml. H2 O were used to wash the stomach contents into the respective centrifuge tube. The combined stomach contents and wash were then centrifuged out for 10 minutes in the International Size 2 Centrifuge (setting at 30). The supernatant was collected, volume measured and recorded, 2 drops of a phenylphthalein indicator (1% in 95% ethanol) were added and the solution was titrated with 0.02 N NaOH (or with 0.04 N NaOH when large volumes of stomach contents were encountered) to pH 8.4 (because of usual coloring of the stomach contents, phenolphthalein was only used to permit visual indication that the end point was near) and the amount of acid present was calculated.
Compounds inducing inhibition of gastric acid secretion of 20% or more were considered active. In a representative operation, and merely by way of illustration, the results obtained with this assay with typical compounds of the present invention are given in Table II below.

[2] = tested on: ulcerogenic effects induced by indomethacin (stomach ulcers); type: in vivo, rat; conditions: indomethacin 20 mg/kg s.c., score 0-4
Experimental: It is further to be noted that although prostaglandins in general are not effective when administered by oral route, the compounds of this invention are effective orally. The assay to determine the protective effect of these compounds is carried out in the following manner.
Rats were starved for 48 hours (water was given ad libitum). Indomethacin (20 mg./kg. of body weight) was administered by the subcutaneous route and one-half the dose of the test compound was administered by gavage at the same time. After three hours, the second half of the test compound was administered, also by gavage. Five hours after the administration of indomethacin the animals were decapitated and the stomachs removed. The stomachs were washed with distilled water, blotted on gauze, cut along the larger curvature, and the contents rinsed with distilled water. The stomachs were spread out, pinned on a cork and visualized under magnifying glass for ulcers. The criteria for scoring of ulcers was as previously reported. [Abdel-Galil et al. Brit. J. Pharmac. Chemotherapy 33:1-14 (1968)]. […]
1 Petechial hemorrhage of pin point ulcers
3 Many ulcers, a few large
4 Many ulcers, mainly large
Control animals treated with indomethacin but not test compound consistently give scores of about 2.5-3.5. Control animals treated with neither indomethacin not test compound give scores of about 0.5-0.8. Compounds diminishing the control ulcer score by 0.5 unit or more are considered to be active.

[3] = tested on: bronchospasms elicited by acetylcholine; experiment: Bronchodilator activity (Konzett assay), acetylcholine bronchospasm; type: in vivo, guinea pigs; conditions: Cavia porcellus; spasmogenic agent acetylcholine; three logarithmic cumulative intravenous doses
Experimental: as §1, §2

[4] = tested on: bronchospasms elicited by histamine; experiment: Bronchodilator activity (Konzett assay), histamine bronchospasm; type: in vivo, guinea pigs; conditions: spasmogenic agent histamine, three logarithmic cumulative intravenous doses; for ED50: Cavia porcellus, iv
Experimental: as §1, §2

[5] = tested on: basal gastric acid secretion; experiment: Inhibition of total acid output (basal gastric acid secretion) in the acute gastric fistula rat; type: in vivo, female Sprague-Dawley rats; conditions: intraduodenal, 10 mg/kg; for inhibition in vivo at 10 mg/kg: Rattus norvegicus
Experimental: Inhibition of basal gastric acid secretion can be determined by the following procedure.
Female Sprague-Dawley rats weighing 140-160 grams are fasted in individual cages for 18-24 hours. The rats are then lightly anesthetized with ether and their front teeth extracted to avoid destruction of the plastic cannula. A midline incision is then made and the stomach and duodenum exposed. A flanged polyvinyl tube is inserted into the fundic portion of the stomach and secured with a purse string suture line using 4-O Mersilene. The rat is then dosed by injection of the compound into the duodenum (1.0 ml. per 100 gram body weight). After dosing, the abdominal wall and skin are closed using metal wound clips. The rat is replaced in a cage containing a longitudinal slit to allow the polyvinyl tube to hang freely. An 8 ml. plastic collecting tube is attached to the flanged cannula and hangs freely below the cage. The first 30 minute sample is discarded designating this time as zero. The collecting tube is attached again and samples removed at the end of 60 and 120 minutes. These samples are referred to as "A" and "B" in the table. The hourly samples are then transferred to a 15 ml. centrifuge and centrifuged for 5-10 minutes. Total and sediment volume are then recorded with the supernatent volume being used as volume of secretion. A 1 ml. or less aliquot is then removed and placed in a 50 ml. beaker containing 10 ml. of distilled water. This sample is then titrated using 0.01 N NaPH to pH 7.0 using a Beckman zeromatic pH meter. Volume, titratable acidity (mew/L) and total acid output (ueq/hour) are recorded. Percent inhibition is determined by comparison with the appropriate control. Groups of three rats were used for preliminary testing, and groups of six rats were used for dose-response evaluations. All compounds are administered in a vehicle consisting of 0.5% methocel, 0.4% tween 80, and saline at a constant volume of 1 ml./100 gram rat. Samples are dispersed by sonification. Percent inhibition is calculated on basis of concurrent vehicle control.
In Table III which follows is given the effect on total acid output after 60 minutes and 120 minutes of intraduodenal dose, of representative compounds of this invention.

[6] = Rattus norvegicus, 50 mg/kg, read-out: Percent inhibition of gastric acid secretion
[7] = total oral dose 25 mg/kg, controls 2.7-3.9
[8] = 1 h, 60 min, read-out: % Inhibition of total acid output, after 60 minutes (A)
[9] = 2 h, 120 min, read-out: % Inhibition of total acid output, after 120 minutes (B)
[10] = total oral dose 12.5 mg/kg, controls 2.5-3.0
[11] = total oral dose 50 mg/kg, controls 2.5-3.2

Row | Structure (SMILES) | ED50 [1] [mg/kg] | inhibition in vivo at 50 mg/kg (gastric acid secretion; [6]) [%] | ED50 [3] [mg/kg] | ED50 [4] [mg/kg] | also measured
1 | CCCCC[C@H](O)/C=C/[C@@H]1[C@@H](C/C=C\CCCC(=O)O)C(=O)C[C@H]1c1ccccc1 [l-11α-phenyl-11-deoxyprostaglandin-E2, l-11-deoxy-11α-phenylprostaglandin-E2] | 0.46 | 58 | – | – | –
2 | CCCCC[C@H](O)/C=C/[C@@H]1[C@@H](C/C=C\CCCC(=O)O)[C@@H](O)C[C@H]1C#N [l-11α-cyano-11-deoxyprostaglandin-F2 α, 11α-cyano-11-deoxyprostaglandin F2 α] | 0.03 | 43 | 0.051 | – | Ulcer score, treated animals [2, 7]: 1.3
3 | CC/C=C\CC(O)/C=C/C1C(C/C=C\CCCC(=O)O)C(=O)CC1C(C(=O)O)C(=O)O (stereo not drawn) [l-11α-dicarboxymethyl-11-deoxyprostaglandin-E3] | – | – | – | – | ED50, bronchodilator activity [1]: 3.3 mg/kg
4 | CCCCCC(C)/C=C/[C@H]1[C@H](C)CC(=O)[C@@H]1C/C=C\CCCC(=O)O (stereo partly drawn) [l-11α,15-dimethyl-11,15-bisdeoxyprostaglandin-E2] | 18.1 | 60 | – | – | –
5 | CCCCC[C@H](O)/C=C/[C@H]1[C@H](C[N+](=O)[O-])CC(=O)[C@@H]1C/C=C\CCCC(=O)O [11-deoxy-11α-nitromethyl prostaglandin E2] | – | – | 1.7 | 1.4 | Ulcer score, treated animals ([2]; total oral dose 100 mg/kg, controls 3.2): 1.0; inhibition in vivo at 100 mg/kg (gastric acid secretion; Rattus norvegicus, 100 mg/kg, read-out: Percent inhibition of gastric acid secretion): 74%
6 | C=C[C@@H]1CC(=O)[C@H](C/C=C\CCCC(=O)O)[C@H]1/C=C/[C@@H](O)CCCCC [l-11α-vinyl-11-deoxyprostaglandin-E2, 11-deoxy-11α-vinyl-prostaglandin E2] | 1.2 | 59 | – | 1.3 | –
7 | CCCCC[C@H](O)/C=C/[C@H]1[C@@H](C#N)CC(=O)[C@@H]1C/C=C\CCCC(=O)O [l-11β-cyano-11-deoxyprostaglandin-E2, l-11-deoxy-11β-cyanoprostaglandin-E2] | 3.1 | – | – | 54.9 | inhibition in vivo at 10 mg/kg [5, 8]: 26%; inhibition in vivo at 10 mg/kg [5, 9]: 43%
8 | CCCCC[C@H](O)/C=C/[C@@H]1[C@@H](C/C=C\CCCC(=O)O)C(=O)C[C@H]1C(C)C [l-11α-isopropyl-11-deoxyprostaglandin-E2, 11-deoxy-11α-isopropyl-prostaglandin E2] | 8.95 | 42 | – | – | –
9 | CCCCC[C@H](O)/C=C/[C@H]1[C@H](CC)CC(=O)[C@@H]1C/C=C\CCCC(=O)O [l-11α-ethyl-11-deoxyprostaglandin-E2, 11-deoxy-11α-ethyl-prostaglandin E2] | – | – | 3.9 | 1.24 | Ulcer score, treated animals [2, 7]: 2.2; inhibition in vivo at 10 mg/kg [5, 8]: 57%; inhibition in vivo at 10 mg/kg [5, 9]: 66%
10 | CCCCC[C@H](O)/C=C/[C@H]1[C@H](C(N)=O)CC(=O)[C@@H]1C/C=C\CCCC(=O)O [11α-carboxamido-11-deoxyprostaglandin E2] | – | – | – | – | ED50, bronchodilator activity [1]: 1.7 mg/kg; ED50, bronchodilator activity [4]: 0.53 mg/kg; % Inhibition of total acid output, after 60 minutes (A) ([5]; 60 min): 27%; % Inhibition of total acid output, after 120 minutes (B) ([5]; 120 min): 35%; Percent inhibition of gastric acid secretion (gastric acid secretion; 50 mg/kg): 27%
11 | CCCCC[C@H](O)/C=C/[C@@H]1[C@@H](C/C=C\CCCC(=O)O)[C@@H](O)C[C@H]1C [l-11α-methyl-11-deoxyprostaglandin-F2 α, 11-deoxy-11α-methyl-prostaglandin F2α] | 0.038 | 70 | – | 0.013 | Ulcer score, treated animals [2, 7]: 1.8
12 | CCCCC[C@H](O)CC[C@H]1[C@H](C)CC(=O)[C@@H]1CCCCCCC(=O)O [11-deoxy-11α-methyl-13,14-dihydroprostaglandin E1] | – | 45 | 0.773 | – | Ulcer score, treated animals [2, 10]: 2.3; Ulcer score, treated animals [2, 11]: 1.7
13 | CCCCC[C@H](O)/C=C/[C@H]1[C@H](C[N+](=O)[O-])C[C@H](O)[C@@H]1C/C=C\CCCC(=O)O [11α-nitromethyl-11-deoxyprostaglandin F2α] | – | 38 | – | – | Ulcer score, treated animals [2, 11]: 1.8
14 | CCCCC[C@H](O)/C=C/[C@@H]1[C@@H](C/C=C\CCCC(=O)O)[C@@H](O)C[C@H]1SC [11α-methylthio-11-deoxyprostaglandin F2α] | 2.63 | 61 | – | 1.6 | Ulcer score, treated animals [2, 10]: 1.2
15 | CCCCC[C@H](O)/C=C/[C@H]1[C@H](CC(=O)O)CC(=O)[C@@H]1C/C=C\CCCC(=O)O [11-deoxy-11α-carboxymethylprostaglandin E2] | 5.5 | – | 4.6 | 3.4 | –
16 | CCCCC[C@@H](/C=C/[C@H]1C(C#N)CC(=O)[C@@H]1C/C=C\CCCC(=O)OC)OC(C)=O (stereo partly drawn) [11α/11β-cyano-11-deoxy-15-O-acetyl-prostaglandin E2 methyl ester] | – | – | – | – | Ulcer score, treated animals [2, 10]: 2.0; Ulcer score, treated animals [2, 11]: 1.3; inhibition in vivo at 10 mg/kg [5, 8]: 40%; inhibition in vivo at 10 mg/kg [5, 9]: 34%; inhibition in vivo at 25 mg/kg (gastric acid secretion; Rattus norvegicus, 25 mg/kg, read-out: Percent inhibition of gastric acid secretion): 51%
